{
  "source": "patent US8569268B2",
  "about": "“Acrylate/methacrylate-based diblock copolymer/anthranilic diamide compositions for propagule coating” (E I du Pont de Nemours and Company, priority 2010, dated 2013)",
  "system": "Spodoptera frugiperda",
  "experiment": "Laboratory test with 2nd instar larva of Spodoptera frugiperda on maize leaves",
  "assay_type": "in vivo",
  "data": [
    {"smiles": "CNC(=O)c1cc(Cl)cc(C)c1NC(=O)c1cc(Br)nn1-c1ncccc1Cl", "note": "[Compound 2, 3-bromo-N-[4-chloro-2-methyl-6-[(methylamino)carbonyl]phenyl]-1-(3-chloro-2-pyridinyl)-1H-pyrazole-5-carboxamide]", "values": [
      {"measurement": "concentration needed to achieve 100% mortality within 72 h", "result": "0.037 micrograms per g of tissue"},
      {"measurement": "concentration resulting in 50% mortality within 72 h", "result": "0.033 micrograms per g of leaf tissu"}
    ]}
  ]
}
